Test results reported in the supplement of paper PMC10307832.

Columns and labels:
Assay in all cases: relative viability (nuclei count vs DMSO), 5 days (fraction); higher = more cells survive
[1] = compound: C1CC2=C(C1)C=C(C=C2)OC3=NC(=C4C(=N3)N(C=N4)CC5=CC=C(C=C5)C6=CC=CC=C6)N[C@@H](CC7=CC=CC=C7)CO [QS11] + O=C(CCCCCCC(=O)Nc1ccccc1)NO [Vorinostat] (partner 1 µM)
Procedure, shortened: (§1)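 Relative viability equals treated-well nuclei counts divided by vehicle-well nuclei counts. Counts came from 4× images of lung cancer cell lines grown in 1536-well plates for 5 days after pin-tool dosing on the day after seeding. Dosing used one drug alone or a fixed anchor-drug dose plus five library-drug doses (not always all listed) in √10 steps, and values are medians of duplicate plates.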

[2] = compound: C[As](C)SC[C@H](NC(=O)CC[C@H](N)C(=O)O)C(=O)NCC(=O)O [Darinaparsin] + COc1cccc2cc(-c3nc([C@H]4CC[C@H](C(=O)O)CC4)n4ncnc(N)c34)[nH]c12 [OSI-027] (partner 0.5 µM)
Procedure, shortened: as §1

[3] = compound: C[As](C)SC[C@H](NC(=O)CC[C@H](N)C(=O)O)C(=O)NCC(=O)O [Darinaparsin] + C[C@@H](Oc1cc(-c2cnn(C3CCNCC3)c2)cnc1N)c1c(Cl)ccc(F)c1Cl [Crizotinib] (partner 1 µM)
Procedure, shortened: as §1

Cell Line | relative viability ([1]; first compound 0.08 µM) | relative viability ([1]; first compound 0.253 µM) | relative viability ([1]; first compound 0.8 µM) | relative viability ([1]; first compound 2.53 µM) | relative viability ([1]; first compound 8 µM) | relative viability ([2]; first compound 0.08 µM) | relative viability ([2]; first compound 0.8 µM) | relative viability ([2]; first compound 2.53 µM) | relative viability ([2]; first compound 8 µM) | relative viability ([3]; first compound 0.08 µM) | relative viability ([3]; first compound 0.8 µM) | relative viability ([3]; first compound 2.53 µM) | relative viability ([3]; first compound 8 µM)
LXF-289 | 0.772 | 0.828 | 0.724 | 0.719 | 0.637 | 0.849 | 0.786 | 0.649 | 1.02 | 0.855 | 0.814 | 0.682 | 0.906
NCI-H23 | 0.542 | 0.6 | 0.564 | 0.544 | 0.491 | 0.668 | 0.579 | 0.669 | 0.606 | 0.753 | 0.428 | 0.412 | 0.515
NCI-H322M | 0.858 | 0.997 | 1.05 | 1.16 | 1.41 | 0.611 | 0.531 | 0.545 | 0.573 | 1.02 | 1.06 | 0.753 | 1.03
NCI-H358 | 0.64 | 0.602 | 0.782 | 0.65 | 0.49 | 0.988 | 0.76 | 0.846 | 0.793 | 0.566 | 0.499 | 0.576 | 0.673
NCI-H441 | 0.855 | 0.857 | 0.658 | 0.53 | 0.717 | 0.79 | 0.719 | 0.555 | 0.613 | 0.956 | 0.729 | 0.676 | 0.701
NCI-H460 | 0.938 | 0.811 | 0.541 | 0.687 | 0.212 | 0.98 | 0.753 | 0.537 | 1.19 |  | 0.91 | 0.607 | 1.56
NCI-H520 | 0.758 | 0.758 | 0.639 | 0.804 | 0.88 | 0.362 | 0.302 | 0.185 | 0.302 | 0.873 | 0.759 | 0.515 | 0.924
NCI-H522 | 0.799 | 0.871 | 0.766 | 1 | 0.999 | 0.617 | 0.644 | 0.623 | 0.712 |  |  |  | 
NCI-H596 | 0.52 | 0.51 | 0.501 | 0.623 | 0.593 | 0.766 | 0.845 | 0.647 | 0.762 | 1.08 | 0.999 | 0.765 | 0.982
NCI-H647 | 0.623 | 0.801 | 0.62 | 0.387 | 0.356 | 0.625 | 0.59 | 0.545 | 1.08 | 1.66 | 1.1 | 1.16 | 1.6
NCI-H650 | 0.496 | 0.414 | 0.333 | 0.416 | 0.45 | 0.584 | 0.531 | 0.533 | 0.604 | 0.861 | 0.574 | 0.683 | 0.899
NCI-H661 | 0.786 | 0.805 | 0.632 | 0.804 | 0.672 | 0.722 | 0.677 | 0.658 | 0.69 | 1.08 | 1.11 | 0.929 | 1.1
NCI-H727 | 1.28 | 1.16 | 1.29 | 1.07 | 1.37 | 0.77 | 0.541 | 0.794 | 0.854 | 0.713 | 0.786 | 0.77 | 0.988
NCI-H838 | 0.735 | 0.642 | 0.666 | 0.774 | 0.755 | 0.401 | 0.34 | 0.458 | 0.428 | 0.996 | 0.803 | 0.776 | 0.976
NCI-H1299 |  |  |  |  |  |  |  |  |  | 1.09 | 0.981 | 0.871 | 1.1
NCI-H1355 | 0.732 | 0.62 | 0.529 | 0.597 | 0.554 | 0.432 | 0.352 | 0.34 | 0.372 | 1.13 | 1.06 | 0.852 | 1.18
NCI-H1395 | 0.649 | 0.752 | 0.772 | 0.814 | 0.823 | 0.744 | 0.636 | 0.586 | 0.628 |  |  |  | 
NCI-H1437 | 0.894 | 0.751 | 0.616 | 0.609 | 0.39 | 0.955 | 0.897 | 0.935 | 1.01 | 1.23 | 0.865 | 0.716 | 1.32
NCI-H1563 |  |  |  |  |  | 0.752 | 0.735 | 0.71 | 0.708 | 0.903 | 0.768 | 0.87 | 0.874
NCI-H1623 |  |  |  |  |  | 0.429 | 0.496 | 0.471 | 0.393 |  |  |  | 
NCI-H1648 | 0.506 | 0.666 | 0.517 | 0.505 | 0.577 | 0.297 | 0.237 |  | 0.269 |  |  |  | 
NCI-H1650 | 0.463 | 0.446 | 0.51 | 0.476 | 0.389 | 0.567 | 0.612 | 0.504 | 0.757 | 1.14 | 0.98 | 0.795 | 1.17
NCI-H1651 | 0.555 | 0.518 | 0.527 | 0.571 | 0.564 | 0.78 | 0.753 | 0.619 | 0.822 | 0.87 | 0.895 | 0.845 | 1.07
NCI-H1666 | 1.04 | 1.09 | 0.924 | 0.713 | 0.73 | 0.926 | 0.827 | 0.847 | 0.982 | 0.904 | 0.927 | 1.02 | 1.14
NCI-H1703 |  |  |  |  |  |  |  |  |  | 1.45 | 0.859 | 0.483 | 0.607
NCI-H1792 |  |  |  |  |  | 0.847 | 0.604 | 0.866 | 0.96 | 1.95 | 0.989 | 0.654 | 1.34
NCI-H1793 | 0.734 | 0.528 | 0.808 | 0.88 | 0.702 | 0.329 | 0.254 | 0.27 | 0.309 |  |  |  | 
NCI-H2342 | 0.759 | 0.733 | 0.947 | 0.669 | 0.746 | 0.592 | 0.593 | 0.558 | 0.654 |  |  |  | 
SW 900 | 0.295 | 0.378 | 0.452 | 0.457 | 0.348 | 0.851 | 0.547 | 0.72 | 0.756 |  |  |  | 
